Experimental findings from PubChem BioAssay (NCI) are described below.

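Grown in 96-well plates, cells were treated for 48 hours with each compound at five concentrations. Insufficient inhibition: endpoint recorded as highest concentration tested. TGI: total growth inhibition.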

One assay deals with NCI/ADR-RES ovarian. The assay can be described thus: NCI anticancer screen, dose series, 48 h.
`O=C(NC1=C(Cl)C(=O)c2ccccc2C1=O)c1ccccc1` came in with a TGI of 39.1 µM.
Same read-out and setting: next, `COc1ccc(Cn2c(=O)c(OC)c(C)c3cc4ccccc4cc32)cc1`: 87.9 µM; `COC(=O)C1Cc2cc3c(cc2C1=O)CCC3` (stereo not given): greater than 100 µM; `O=C1/C(=C\c2ccc([N+](=O)[O-])cc2)N(S(=O)(=O)c2ccccc2)c2ncccc21`: 63.3 µM.
Same read-out and setting: next, `CC(=O)SCCC(NC(=S)Nc1ccccc1)P(=O)(Oc1ccccc1)Oc1ccccc1` (stereo not given): greater than 100 µM; `Nc1ccccc1CCN1CCN(CCCc2ccccc2)CC1`: greater than 100 µM.
Take `O=C1NC(=S)N/C1=C\c1cccs1`: the TGI was greater than 100 µM.
In turn, `CSc1c(C(=O)Nc2ccccc2)c(N)n(N)c(=O)c1C#N` showed a TGI greater than 100 µM.
Still for that read-out and setting: as for `CC(C)(C)C1CCC(=O)/C(=C/CC2CC(=O)N(c3ccccc3)C(=O)C2)C1` (stereo not given), the figure is 37.7 µM; as for `CC12C=CC(C)(C3C(=O)C4C(C(=O)C31)C1(C)C=CC4(C)S1=O)S2=O` (stereo not given), greater than 100 µM.

In the next assay the test system is OVCAR-3 ovarian. The assay can be described thus: NCI anticancer screen, dose series, 48 h.
The compound `O=C1CS(=O)(=O)C(c2cccc(Oc3ccccc3)c2)N1c1ccc(Cl)cc1` (stereo not given) had a TGI greater than 100 µM.
Still for that read-out and setting: as for `Clc1ccc(CCN(CCc2ccc(Cl)c(Cl)c2)CCN2CCCC2)cc1Cl`, the figure is 3.2 µM; as for `C=C(CCOC)CCC1CCCCC(CN(C)C)C1=O` (stereo not given), greater than 100 µM.
Same read-out and setting: as for `ONC1=Nc2cc(Cl)ccc2C(=S)N2CSCC12` (stereo not given), the figure is greater than 100 µM.
Still for that read-out and setting: next, `COc1ccc(/C=C2\N=C(N3CCCCC3)NC2=O)cc1`: greater than 100 µM.
With `CCCCC1(NN=C2CCCCC2)C(=O)N(c2ccccc2)N(c2ccccc2)C1=O`, the TGI was greater than 100 µM.
With `Cc1nc2ccc(Br)cc2c(=O)n1-c1nnc(C(C)(C)C)s1`, the TGI was greater than 10 µM.
On the same count and under the same terms, next, `COc1cc2c(cc1O)c(O)cc1c3cc(OC)c(OC)cc3c[n+](C)c21`: greater than 100 µM; `NC(N)=NS(=O)(=O)c1ccc(NNc2c3ccccc3nc3ccccc23)cc1`: 15.7 µM; `COc1cc2c(cc1OCCCCCCCCCCN1C(=O)c3cccc4cccc(c34)C1=O)N=C[C@@H]1CCCN1C2=O`: 20.3 µM.
Compound `O=C(NC1=C(Cl)C(=O)c2ccccc2C1=O)c1ccccc1` returned a TGI of 42.7 µM.
As for `COc1ccc(Cn2c(=O)c(OC)c(C)c3cc4ccccc4cc32)cc1`, the TGI is greater than 100 µM.
The compound `COC(=O)C1Cc2cc3c(cc2C1=O)CCC3` (stereo not given) returned a TGI greater than 100 µM.
On the same count and under the same terms, next, `O=C1/C(=C\c2ccc([N+](=O)[O-])cc2)N(S(=O)(=O)c2ccccc2)c2ncccc21`: 31.3 µM; `CC(=O)SCCC(NC(=S)Nc1ccccc1)P(=O)(Oc1ccccc1)Oc1ccccc1` (stereo not given): greater than 100 µM.
On the same count and under the same terms, as for `Nc1ccccc1CCN1CCN(CCCc2ccccc2)CC1`, the figure is greater than 100 µM; as for `O=C1NC(=S)N/C1=C\c1cccs1`, greater than 100 µM.
Same read-out and setting: as for `CSc1c(C(=O)Nc2ccccc2)c(N)n(N)c(=O)c1C#N`, the figure is greater than 100 µM; as for `CC(C)(C)C1CCC(=O)/C(=C/CC2CC(=O)N(c3ccccc3)C(=O)C2)C1` (stereo not given), 47.7 µM; as for `CC12C=CC(C)(C3C(=O)C4C(C(=O)C31)C1(C)C=CC4(C)S1=O)S2=O` (stereo not given), greater than 100 µM.

The subject of the next assay is SF-295 CNS. The experiment in a line: NCI anticancer screen, dose series, 48 h.
`O=C1CS(=O)(=O)C(c2cccc(Oc3ccccc3)c2)N1c1ccc(Cl)cc1` (stereo not given) returned a TGI greater than 100 µM.
Still for that read-out and setting: as for `Clc1ccc(CCN(CCc2ccc(Cl)c(Cl)c2)CCN2CCCC2)cc1Cl`, the figure is 3.3 µM.
Regarding `C=C(CCOC)CCC1CCCCC(CN(C)C)C1=O` (stereo not given), the TGI is greater than 100 µM.
Same read-out and setting: next, `ONC1=Nc2cc(Cl)ccc2C(=S)N2CSCC12` (stereo not given): greater than 100 µM; `COc1ccc(/C=C2\N=C(N3CCCCC3)NC2=O)cc1`: greater than 100 µM; `CCCCC1(NN=C2CCCCC2)C(=O)N(c2ccccc2)N(c2ccccc2)C1=O`: greater than 100 µM.
The same measure, in the same setting: as for `Cc1nc2ccc(Br)cc2c(=O)n1-c1nnc(C(C)(C)C)s1`, the figure is greater than 10 µM; as for `COc1cc2c(cc1O)c(O)cc1c3cc(OC)c(OC)cc3c[n+](C)c21`, greater than 100 µM; as for `NC(N)=NS(=O)(=O)c1ccc(NNc2c3ccccc3nc3ccccc23)cc1`, 73 µM.
For the compound `COc1cc2c(cc1OCCCCCCCCCCN1C(=O)c3cccc4cccc(c34)C1=O)N=C[C@@H]1CCCN1C2=O`, the TGI amounted to 27.4 µM.
Same read-out and setting: next, `O=C(NC1=C(Cl)C(=O)c2ccccc2C1=O)c1ccccc1`: greater than 100 µM; `COc1ccc(Cn2c(=O)c(OC)c(C)c3cc4ccccc4cc32)cc1`: greater than 100 µM.
Take `COC(=O)C1Cc2cc3c(cc2C1=O)CCC3` (stereo not given): the TGI is greater than 100 µM.
As for `O=C1/C(=C\c2ccc([N+](=O)[O-])cc2)N(S(=O)(=O)c2ccccc2)c2ncccc21`, the TGI is 75.4 µM.
Turning to `CC(=O)SCCC(NC(=S)Nc1ccccc1)P(=O)(Oc1ccccc1)Oc1ccccc1` (stereo not given), the TGI was greater than 100 µM.
`Nc1ccccc1CCN1CCN(CCCc2ccccc2)CC1` came in with a TGI greater than 100 µM.
On the same count and under the same terms, as for `O=C1NC(=S)N/C1=C\c1cccs1`, the figure is greater than 100 µM; as for `CC(C)(C)C1CCC(=O)/C(=C/CC2CC(=O)N(c3ccccc3)C(=O)C2)C1` (stereo not given), greater than 100 µM.
The same measure, in the same setting: next, `CC12C=CC(C)(C3C(=O)C4C(C(=O)C31)C1(C)C=CC4(C)S1=O)S2=O` (stereo not given): greater than 100 µM.

Another assay deals with SF-539 CNS. The assay can be described thus: NCI anticancer screen, dose series, 48 h.
`O=C1CS(=O)(=O)C(c2cccc(Oc3ccccc3)c2)N1c1ccc(Cl)cc1` (stereo not given) registered a TGI of 39.9 µM.
Same read-out and setting: next, `Clc1ccc(CCN(CCc2ccc(Cl)c(Cl)c2)CCN2CCCC2)cc1Cl`: 3.18 µM; `COc1ccc(/C=C2\N=C(N3CCCCC3)NC2=O)cc1`: greater than 100 µM; `CCCCC1(NN=C2CCCCC2)C(=O)N(c2ccccc2)N(c2ccccc2)C1=O`: greater than 100 µM.
On the same count and under the same terms, next, `Cc1nc2ccc(Br)cc2c(=O)n1-c1nnc(C(C)(C)C)s1`: greater than 10 µM.
Still for that read-out and setting: next, `COc1cc2c(cc1O)c(O)cc1c3cc(OC)c(OC)cc3c[n+](C)c21`: greater than 100 µM; `NC(N)=NS(=O)(=O)c1ccc(NNc2c3ccccc3nc3ccccc23)cc1`: 36.7 µM; `COc1cc2c(cc1OCCCCCCCCCCN1C(=O)c3cccc4cccc(c34)C1=O)N=C[C@@H]1CCCN1C2=O`: 3.21 µM.
As for `O=C(NC1=C(Cl)C(=O)c2ccccc2C1=O)c1ccccc1`, the TGI is greater than 100 µM.
Still for that read-out and setting: as for `COc1ccc(Cn2c(=O)c(OC)c(C)c3cc4ccccc4cc32)cc1`, the figure is greater than 100 µM; as for `COC(=O)C1Cc2cc3c(cc2C1=O)CCC3` (stereo not given), greater than 100 µM.
On the same count and under the same terms, as for `O=C1/C(=C\c2ccc([N+](=O)[O-])cc2)N(S(=O)(=O)c2ccccc2)c2ncccc21`, the figure is 55.5 µM; as for `CC(=O)SCCC(NC(=S)Nc1ccccc1)P(=O)(Oc1ccccc1)Oc1ccccc1` (stereo not given), greater than 100 µM.
Still for that read-out and setting: as for `Nc1ccccc1CCN1CCN(CCCc2ccccc2)CC1`, the figure is greater than 100 µM; as for `O=C1NC(=S)N/C1=C\c1cccs1`, greater than 100 µM.
`CSc1c(C(=O)Nc2ccccc2)c(N)n(N)c(=O)c1C#N` had a TGI greater than 100 µM.
Still for that read-out and setting: next, `CC12C=CC(C)(C3C(=O)C4C(C(=O)C31)C1(C)C=CC4(C)S1=O)S2=O` (stereo not given): greater than 100 µM.

The test system of another assay is SK-OV-3 ovarian. The assay can be described thus: NCI anticancer screen, dose series, 48 h.
For `O=C1CS(=O)(=O)C(c2cccc(Oc3ccccc3)c2)N1c1ccc(Cl)cc1` (stereo not given), the TGI is greater than 100 µM.
The same measure, in the same setting: next, `Clc1ccc(CCN(CCc2ccc(Cl)c(Cl)c2)CCN2CCCC2)cc1Cl`: 3.49 µM; `C=C(CCOC)CCC1CCCCC(CN(C)C)C1=O` (stereo not given): greater than 100 µM.
On the same count and under the same terms, next, `ONC1=Nc2cc(Cl)ccc2C(=S)N2CSCC12` (stereo not given): greater than 100 µM.
